Measurements taken from patent US8101605B2, “SHIP1 modulators and methods related thereto” (Aquinox Pharmaceuticals Inc., priority 2009, dated 2012).

What was measured:
His-hSHIP1 enzyme = target: T1, His-hSHIP1 enzyme (Homo sapiens, UniProt Q92835); test: His-hSHIP1 phosphatase activity assay (IP4 substrate, Biomol Green); format: biochemical; settings: percentage increase relative to background; concentrations ≦300 μM
T1 sequence (Q92835 1-1189): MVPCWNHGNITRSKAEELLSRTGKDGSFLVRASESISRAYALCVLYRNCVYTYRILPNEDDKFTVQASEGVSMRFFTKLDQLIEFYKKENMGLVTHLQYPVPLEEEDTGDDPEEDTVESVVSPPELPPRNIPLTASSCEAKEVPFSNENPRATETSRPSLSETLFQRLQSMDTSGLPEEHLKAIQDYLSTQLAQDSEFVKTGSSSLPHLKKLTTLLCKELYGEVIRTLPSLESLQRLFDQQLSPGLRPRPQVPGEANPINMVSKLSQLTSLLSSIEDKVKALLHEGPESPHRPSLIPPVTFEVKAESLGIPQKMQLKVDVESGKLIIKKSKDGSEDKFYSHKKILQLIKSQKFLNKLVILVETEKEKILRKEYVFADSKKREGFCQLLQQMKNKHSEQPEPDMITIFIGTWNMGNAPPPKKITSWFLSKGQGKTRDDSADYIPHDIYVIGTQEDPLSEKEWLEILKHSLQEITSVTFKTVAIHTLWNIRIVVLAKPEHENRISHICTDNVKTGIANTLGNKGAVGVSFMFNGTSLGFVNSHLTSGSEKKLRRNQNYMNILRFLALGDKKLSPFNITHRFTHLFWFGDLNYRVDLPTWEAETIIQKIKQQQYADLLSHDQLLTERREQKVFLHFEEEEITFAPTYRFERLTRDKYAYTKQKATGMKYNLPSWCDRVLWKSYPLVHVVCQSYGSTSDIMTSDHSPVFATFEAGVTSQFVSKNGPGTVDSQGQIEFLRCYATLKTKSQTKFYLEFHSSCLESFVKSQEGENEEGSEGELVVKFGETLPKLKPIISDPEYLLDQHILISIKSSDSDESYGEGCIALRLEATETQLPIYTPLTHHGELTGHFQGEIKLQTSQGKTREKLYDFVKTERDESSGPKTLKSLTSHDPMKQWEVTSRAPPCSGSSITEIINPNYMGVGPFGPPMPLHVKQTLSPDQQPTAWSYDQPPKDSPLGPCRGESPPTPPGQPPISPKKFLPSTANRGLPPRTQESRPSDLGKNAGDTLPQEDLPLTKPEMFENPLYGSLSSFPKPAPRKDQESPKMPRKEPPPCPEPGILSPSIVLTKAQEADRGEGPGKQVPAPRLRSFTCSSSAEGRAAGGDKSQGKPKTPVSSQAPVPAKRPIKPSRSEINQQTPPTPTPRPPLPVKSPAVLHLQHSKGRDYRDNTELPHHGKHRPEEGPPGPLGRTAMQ
Summary of the method: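 His-hSHIP1 (15–20 ng) was incubated with IP4 (50 μM final) and compound (0–300 μM final, from 10% ethanol solutions) in 20 mM Tris-HCl, 10 mM MgCl2 pH 7.5, 0.02% Tween 20 for 15 min at 37 °C. Released phosphate was read with Biomol Green at 650 nm. Activation is % increase over background, scored + (<50%), ++ (≥50% but <65%), +++ (≥65%).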

[1] = test system: Akt phosphorylation in Jurkat (PTEN−/SHIP1−) cells; test: Akt phosphorylation in IGF-1 stimulated Jurkat lymphocytes (western blot); format: cell-based; parameters: key: +: inhibits Akt phosphorylation at 10 μM; −: no effect on Akt phosphorylation at 10 μM; settings: 10 μM; IGF-1 stimulation
Experimental: Jurkat (PTEN−/SHIP1−) or Molt-4 (PTEN−/SHIP1+) cells were starved in serum free RPMI for overnight. In a 15 mL conical tube, 2-3 million serum starved cells (1 million cells per mL) were treated with various concentrations of test compound (0.1, 1, or 10 μM final in 0.1% DMSO) for 30 min at 37° C. followed by stimulation with 100 ng/mL of IGF-1 for 1 hour at 37° C. After stimulation, cells were washed once with ice-cold DPBS and lysed with Lysis Buffer (20 mM Tris-HCl, pH 7.5, 140 mM NaCl, 1% NP-40, Complete Mini Protease Inhibitor Cocktail, 10 mM NaF, 1 mM Na3VO4, 1 mM β-glycerolphosphate) on ice for 30 min with vortexing every 10 min. Samples were then centrifuged at 13,000 rpm for 20 min, and supernatants were collected as total cell lysate samples. Protein concentration was determined using bicinchonic acid assay, and about 15 μg of total protein from each sample was loaded and separated on a 4-12% Tris-Glycine gel. After SDS-PAGE, proteins were transferred from the gel to a nitrocellulose membrane. The membrane was blocked in 5% BSA in PBS containing 0.1% Tween-20 (PBS-T) for 1 hour at room temperature before probing with primary antibodies for overnight at 4° C. The following antibodies were used: mouse anti-SHIP1 (1:500 dilution; Santa Cruz, Calif., USA), rabbit anti-phospho-Akt(Ser473) (1:1000 dilution; Cell Signaling Technologies, MA, USA), rabbit anti-Akt (1:1000; Cell Signaling Technologies, MA, USA), and rabbit anti-actin (1:2000; Cell Signaling Technologies, MA, USA). The membrane was then incubated with goat anti-rabbit or anti-mouse secondary antibodies (1:3000) for 1 hour at room temperature. Target proteins on the membrane were detected with ECL solution and exposed on a film.
Scoring in Table 3 is expressed as follows: + (inhibits Akt phosphorylation at 10 μM); − (no effect on Akt phosphorylation at 10 μM).

Row | SMILES | Scoring: percent (%) activation of His-hSHIP1 enzyme (His-hSHIP1 enzyme) | Akt phosphorylation, Jurkat (SHIP1−) [1]
1 | CC1(C)CCC[C@]2(C)[C@H]3CS(=O)(=O)c4cc(O)cc(O)c4[C@]3(C)CC[C@@H]12 [Compound No. 28, (1R,10R,11S,16S)-3,5-dihydroxy-1,11,15,15-tetramethyl-8-thiatetracyclo[8.8.0.0^2,7.0^11,16]octadeca-2,4,6-triene-8,8-dione] | +++ (≧65%) | −
2 | Cc1cc(O)cc2c1[C@]1(C)CC[C@H]3C(C)(C)CCC[C@]3(C)[C@H]1CO2 [Compound No. 6, (1R,10R,11S,16S)-1,3,11,15,15-pentamethyl-8-oxatetracyclo[8.8.0.0^2,7.0^11,16]octadeca-2,4,6-trien-5-ol] | + (<50%) | −
